Entries after “also recorded” stand apart in the source; their conditions may differ. Structures can show the parent of a compound that is named as a salt.
Tests used:
Format in all cases: in vitro ADME
[1] = Effects of CYP-selective inhibitors on 5-FU formation from FT enantiomers in pooled human hepatic microsomes; conditions: pooled human hepatic microsomes; for effect on 5-FU formation from R-FT (in words): furafylline 25, quinidine 1, ketoconazole 1 μmol/L; for effect on 5-FU formation from S-FT (in words): furafylline 25, ticlopidine 20, quinidine 1, ketoconazole 1 μmol/L
Protocol: (§1) Metabolic reaction by S9 and cytosol (each 2 mg protein/mL) was carried out in 100 mmol/L phosphate (pH 7.4) because TPase requires phosphate ions for catalyzing the reaction. In some cases, insect microsomes expressing recombinant CYP isoforms (20 pmol/mL) were added to the incubation mixtures in either 50, 100 mmol/L phosphate (pH 7.4) or 100 mmol/L Tris (pH 7.4), depending on supplier's recommendation. Microsomal protein concentrations of all cDNA-expressed CYPs were adjusted to 0.5 mg protein/mL by adding control microsomes expressing NADPH-P450 oxidoreductase and cytochrome b5. The reaction for the assay of FT metabolism was initiated by adding the substrate, following preincubation for 5 min at 37°C. After incubation at 37°C, the reaction was stopped by adding three volumes of ice-cold acetonitrile. The incubation times of microsomes, cytosol, and S9 were 15, 15, and 30 min, respectively. After centrifugation, the supernatant was collected and stored at −80°C until the determination of 5-FU. Because a small portion of FT is nonenzymatically converted to 5-FU, the content of 5-FU spontaneously formed was subtracted from total yield obtained after incubation to correct the activity. The spontaneous degradation of FT to 5-FU was evaluated using enzymes inactivated by heating them at 100°C for 5 min.
(§2) The effects of inhibitors of CYP isoforms and TPase, and anti-CYP antibodies on 5-FU formation from FT enantiomers catalyzed by human hepatic preparations were evaluated. In inhibition assays, FT enantiomers were used at the concentrations of 30 μmol/L. 1-Aminobenzotriazole (1 mmol/L) and TPI (10 μmol/L) were used as nonselective inhibitors of CYP isoforms and TPase, respectively. […] Inhibitors were dissolved in methanol and diluted with 100 mmol/L phosphate (pH 7.4) or 100 mmol/L Tris (pH 7.4) so that the final concentration of solvent in the incubation mixture was 0.5%. Methanol was also added to the control at the same concentration as the conditions with inhibitors. Inhibitory effects of anti-CYP antibodies were examined by preincubating microsomes with the antibodies for 10 min on ice. Each polyclonal anti-CYP antibody was used at a concentration ranging 10–40 μL/mg microsomal protein according to the procedure recommended by the supplier. The reaction was performed similarly as described above, except for evaluating the inhibitory effect of furafylline.
(§3) Concentration of 5-FU was determined using a LC/MS/MS system. The analytical system consisted of a HP1100 liquid chromatograph (Agilent Technologies, CA) coupled with an API4000 triple-quadrupole mass spectrometer (Applied Biosystems, CA) equipped with Turbo V source and ESI interface. Sample separation was performed using an Unison UK-Amino column (2.0 mm i.d. × 100 mm, 3 μm; Imtakt, Kyoto, Japan) at a flow rate of 0.2 mL/min at 40°C. The mobile phase consisted of 10 mmol/L ammonium acetate/acetonitrile 10:90 (v/v). […] For quantification of 5-FU, the calibration curves were linear over the range 2–1000 ng/mL.
(§4) For evaluating the effect of furafylline, the preincubation of microsomes with an inhibitor and an NADPH-generating system for 20 min was performed, followed by the enantioselective metabolic reaction. Opened and closed bars represent 5-FU formation rate from R- and S-FT, respectively.

[2] = system: CYP2A6 (tranylcypromine), CYP2E1 (diethyldithiocarbamate); CYP-mediated 5-FU formation from S-FT; assay: as above; conditions: human, pooled human liver microsomes, pH 7.4, probe S-FT (S-tegafur) 30 μmol/L, 5-FU formation
Protocol: as §1, §2, §3, §4

[3] = system: CYP2A6 (tranylcypromine), CYP2E1 (diethyldithiocarbamate); CYP-mediated 5-FU formation from R-FT; assay: as above; conditions: human, pooled human liver microsomes, pH 7.4, probe R-FT (R-tegafur) 30 μmol/L, 5-FU formation
Protocol: as §1, §2, §3, §4

[4] = Enantioselective conversion of FT to 5-FU in human hepatic S9 with CYP and TPase inhibitors; conditions: FT enantiomer 0.1 mmol/L, 1-aminobenzotriazole 1 mmol/L, TPI 10 μmol/L
Protocol: Insect microsomes expressing only NADPH-P450 oxidoreductase and cytochrome b5 were also used as control. These enzymes were stored at −80°C until use.
as §1
as §2, with “In inhibition assays, FT enantiomers were used at the concentrations of 30 μmol/L.” left out
Concentration of 5-FU was determined using a LC/MS/MS system. […] For quantification of 5-FU, the calibration curves were linear over the range 2–1000 ng/mL. […]

Question: What does the source list for `CC(=O)N1CCN(c2ccc(OCC3COC(Cn4ccnc4)(c4ccc(Cl)cc4Cl)O3)cc2)CC1` (centres unmarked) [ketoconazole]?
Answer: effect on 5-FU formation from R-FT (in words) ([1]; R-FT 30 μmol/L): no effect; effect on 5-FU formation from S-FT (in words) ([1]; S-FT 30 μmol/L): no effect

Question: What does the source list for `N[C@@H]1C[C@H]1c1ccccc1` (racemic) [tranylcypromine, tranylcypromine hydrochloride]?
Answer: inhibition at 15 min ([2]; pooled human hepatic microsomes, S-FT 30 μmol/L, tranylcypromine 5 μmol/L, diethyldithiocarbamate 100 μmol/L): ~90%; inhibition at 15 min ([3]; pooled human hepatic microsomes, R-FT 30 μmol/L, tranylcypromine 5 μmol/L, diethyldithiocarbamate 100 μmol/L): ~90%

Question: With `CCN(CC)C(=S)S` [diethyldithiocarbamate, sodium diethyldithiocarbamate] as the compound, how does the inhibition at 15 min [2] read?
Answer: The inhibition at 15 min was 34%.

Question: And the inhibition at 15 min [3]?
Answer: Its inhibition at 15 min is 27%.

Question: And the “amount of 5-FU formed from R-FT, % of the control value” ([1]; R-FT 30 μmol/L, diethyldithiocarbamate 100 μmol/L)?
Answer: The value was 73 % of the control value.

Question: What about the “amount of 5-FU formed from S-FT, % of the control value” ([1]; S-FT 30 μmol/L, diethyldithiocarbamate 100 μmol/L) of the same compound?
Answer: Its value is 64 % of the control value.

Question: For `Cl.N=C1CCCN1Cc1[nH]c(=O)[nH]c(=O)c1Cl` [TPI, 5-chloro-6-(2-iminopyrrolidin-1-yl) methyl-2, 4 (1H,3H)-pyrimidinedione hydrochloride], which “effect on 5-FU formation from R-FT (in words)” value (from here on “effect … from R-FT (in words)”) [4] is on record?
Answer: Its value is “only a minor effect; also recorded: only a slight effect”.

Question: What about the “effect on 5-FU formation from S-FT (in words)” value (from here on “effect … from S-FT (in words)”) [4] of the same compound?
Answer: Its value is “only a minor effect; also recorded: not observed”.

Question: For `Nn1nnc2ccccc21` [1-aminobenzotriazole, 1-Aminobenzotriazole], which “effect … from R-FT (in words)” value [4] is on record?
Answer: Its value is “markedly reduced; also recorded: strong inhibitory effect”.

Question: And the “effect … from S-FT (in words)” value [4]?
Answer: The value was “markedly reduced; also recorded: strong inhibitory effect”.

Question: Which “effect … from R-FT (in words)” value ([1]; R-FT 30 μmol/L) does the source give for `Cc1nc2c([nH]1)c(=O)n(C)c(=O)n2Cc1ccco1` [furafylline] here?
Answer: The value was “no effect”.

Question: And the “effect … from S-FT (in words)” value ([1]; S-FT 30 μmol/L)?
Answer: The value was “no effect”.
